Like-named read-outs stand apart in the source and are kept apart here.
Columns and labels:
[1] = 1-Month stability evaluation (XRPD and HPLC after storage); assay type: physicochemical; conditions: for Purity (Area %): HPLC; for Crystal Form: XRPD
Excerpt: (§1) XRPD patterns were collected on a PANalytical X-ray powder diffractometer fitted with an automatic sample changer, a theta-theta goniometer, automatic beam divergence slit and a PSD Vantec-1 detector. The X-ray tube voltage and amperage were set to 45 kV and 40 mA respectively. The diffractometer was aligned and a calibration check performed using a corundum reference material on the day of data collection. Data were collected and analyzed by the software Data Viewer.
(§2) Agilent 1260/1100 HPLC was utilized and detailed chromatographic conditions for purity and solubility measurement are listed in Table 5.
Samples of Form A of BBR-UDCA, Form D of BBR-UDCA and BBR-UDCA (mixed crystals without quality control on crystal forms) were stored 25° C./60% RH (sealed) and 40° C./75% RH (sealed) for one month.

[2] = Hygroscopicity evaluation by Dynamic Vapor Sorption (DVS); assay type: physicochemical; conditions: for water uptake: DVS
Description: DVS was measured via a SMS (Surface Measurement Systems) DVS Intrinsic.
Dynamic Vapor Sorption (DVS) isotherm plot of Form A of BBR-UDCA was collected at 25° C. with the various humidity, 60% RH-95% RH-0% RH-95% RH (60% RH was the ambient humidity). As the DVS plot shown, a step-like weight loss was observed between 10% RH and 20% RH.
To investigate the hygroscopicity of Form D of BBR-UDCA, DVS isotherm plot of Form D was collected at 25° C. between 0 and 95% RH.

[3] = Accelerated stability evaluation (XRPD and HPLC after storage); assay type: physicochemical; conditions: for Purity (Area %): HPLC; for Form: XRPD; for decrease of HPLC purity: HPLC-DAD, under all three conditions
Excerpt: as §1, §2
To evaluate the physical and chemical stability of Form A of BBR-UDCA and Form D of BBR-UDCA, samples were stored at 80° C. (sealed) for 24 hours, 25° C./60% RH (open) and 40° C./75% RH (open) for one week. […] The physical stability of Form A was better than Form D based on the 1-week stability results at 25° C./60% RH (open) and 40° C./75% RH (open).

[4] = Equilibrium aqueous solubility; assay type: physicochemical
Description: as §2
About 5 mg of each crystal type of solid (Form A of BBR-UDCA and Form D of BBR-UDCA, respectively) was weighed in separate 3-mL bottle, suspended into 1 mL of water, slurried (1000 rpm) at RT for 24 hours, and then centrifuged at 10000 rpm for 3 minutes. The resulting residual solids were characterized by XRPD and supernatant was measured by HPLC-DAD/ELSD. Due to the poor UV absorption of UDCA, DAD was used as the detector only for BBR and ELSD was used for both BBR and UDCA. […] The reason of the deviation from 1:1 may be that after HTD 1801 dissolving in water, a small amount of disproportionation occurred and it was hardly detected by XRPD due to its limited amount.

[5] = air exposure
[6] = 1 Month, 25° C./60% RH (sealed)
[7] = 1 Month, 40° C./75% RH (sealed)
[8] = 1 week, 25° C./60% RH (open), * = degree of crystallinity decreased
[9] = 1 week, 40° C./75% RH (open), * = degree of crystallinity decreased
[10] = water, RT, 24 hours, ELSD as detector

| SMILES | Purity/Initial purity (%) [1, 6] [%] | Purity (Area %) [1, 6] [Area %] | Crystal Form [1, 6] | Purity/Initial purity (%) [1, 7] [%] | Purity (Area %) [1, 7] [Area %] | Crystal Form [1, 7] | Purity (Area %) ([1]; Initial) | water uptake ([2]; 25° C./80% RH) [%] | Purity/Initial purity (%) ([3]; 1 week, 25° C./60% RH (open)) | Purity (Area %) ([3]; 1 week, 25° C./60% RH (open)) | Form [3, 8] | Purity/Initial purity (%) ([3]; 1 week, 40° C./75% RH (open)) | Purity (Area %) ([3]; 1 week, 40° C./75% RH (open)) | Form [3, 9] | Purity/Initial purity (%) ([3]; 24 hours, 80° C. (sealed)) | Purity (Area %) ([3]; 24 hours, 80° C. (sealed)) | Form ([3]; 24 hours, 80° C. (sealed)) | decrease of HPLC purity [3] | Purity (Area %) ([3]; Initial) | further results |
| --- | --- | --- | --- | --- | --- | --- | --- | --- | --- | --- | --- | --- | --- | --- | --- | --- | --- | --- | --- | --- |
| COc1ccc2cc3[n+](cc2c1OC)CCc1cc2c(cc1-3)OCO2.C[C@H](CCC(=O)[O-])[C@H]1CC[C@H]2[C@@H]3[C@@H](O)C[C@@H]4C[C@H](O)CC[C@]4(C)[C@H]3CC[C@]12C [Mixed crystal, berberine ursodeoxycholate] | 91.7 | 90.8 | Mixed | 89.6 | 88.7 | Mixed | 99.0 | – | – | – | – | – | – | – | – | – | – | – | – | – |
| COc1ccc2cc3[n+](cc2c1OC)CCc1cc2c(cc1-3)OCO2.C[C@H](CCC(=O)[O-])[C@H]1CC[C@H]2[C@@H]3[C@@H](O)C[C@@H]4C[C@H](O)CC[C@]4(C)[C@H]3CC[C@]12C [Form A, berberine ursodeoxycholate] | 99.8 | 99.3 | Form A | 99.9 | 99.4 | Form A | 99.5 | 9.9 | 99.9 | 99.4 | Form A | 99.8 | 99.4 | Form A | 99.8 | 99.3 | Form A | no HPLC purity decrease | 99.5 | crystal-form change after DVS (XRPD) ([2]; 25° C., 60% RH-95% RH-0% RH-95% RH): no crystal-form change; Form of residual solid ([4]; water, RT, 24 hours slurry, XRPD, listed as Type A): Type A; Solubility of BBR ([4]; water, RT, 24 hours, DAD as detector): 350 µg/mL; Solubility of BBR [4, 10]: 330 µg/mL; Solubility of UDCA [4, 10]: 420 µg/mL |
| COc1ccc2cc3[n+](cc2c1OC)CCc1cc2c(cc1-3)OCO2.C[C@H](CCC(=O)[O-])[C@H]1CC[C@H]2[C@@H]3[C@@H](O)C[C@@H]4C[C@H](O)CC[C@]4(C)[C@H]3CC[C@]12C [Form D, berberine ursodeoxycholate] | 97.6 | 97.2 | Form D | 95.1 | 94.7 | Form D | 99.6 | 4.1 | 99.3 | 98.9 | Form D* | 98.3 | 97.9 | Form D* | 99.5 | 99.0 | Form D | 0.5-1.7 area % | 99.6 | behaviour in high humidity (DVS) ([2]; 25° C., over 90% RH): deliquesced in high humidity; water uptake ([2]; 25° C., 95% RH): 24.5%; crystal-form change (XRPD) ([3]; all three conditions: 80° C. sealed 24 hours, 25° C./60% RH open and 40° C./75% RH open one week): no crystal-form change; crystal-form change (XRPD) ([1]; 25° C./60% RH (sealed) and 40° C./75% RH (sealed), one month): No crystal-form change; Solubility of UDCA [4]: 520 µg/mL; molar ratio (BBR:UDCA) [4]: 0.93:1 |
| COc1ccc2cc3[n+](cc2c1OC)CCc1cc2c(cc1-3)OCO2.C[C@H](CCC(=O)[O-])[C@H]1CC[C@H]2[C@@H]3[C@@H](O)C[C@@H]4C[C@H](O)CC[C@]4(C)[C@H]3CC[C@]12C [Form J, berberine ursodeoxycholate] | – | – | – | – | – | – | – | – | – | – | – | – | – | – | – | – | – | – | – | form conversion [5]: converts to Form A |

— US20210251981A1, “SOLID FORMS OF BERBERINE URSODEOXYCHOLATE AND COMPOSITIONS AND METHODS THEREOF” (SHENZHEN HIGHTIDE BIOPHARMACEUTICAL, LTD., priority 2017, published 2021)
